Data: ChEMBL document CHEMBL3352801, “Synthesis and lipid-lowering evaluation of 3-methyl-1H-purine-2,6-dione derivatives as potent and orally available anti-obesity agents” (Eur J Med Chem, 2014)
Calls of active or inactive are those of the source. The rule behind the calls is not given here.

Tests used:
3T3-L1 = assay: Inhibition of triglyceride accumulation in mouse 3T3L1 cells at 10 uM after 24 hrs; format: functional
Mus musculus [1] = assay: Antiobesity activity in diet-induced obese C57Bl/6 mouse assessed as reduction in HOMA-IR value at 50 mg/kg/day, po for 4 weeks administered with high-fat diet (reference value: 3.06 +/- 0.85 no_unit); format: functional
Mus musculus [2] = assay: Toxicity in diet-induced obese C57Bl/6 mouse assessed as change in AST level at 50 mg/kg/day, po for 4 weeks administered with high-fat diet (reference value: 125.00 +/- 35.00 U/L); format: organism-based; design: route oral; settings: in vivo, 672 h
Mus musculus [3] = assay: Antiobesity activity in diet-induced obese C57Bl/6 mouse assessed as reduction in lipid droplets in liver at 50 mg/kg/day, po for 4 weeks administered with high-fat diet by Oil Red O staining-based histological method; format: functional, organism-based
Mus musculus [4] = assay: Antiobesity activity in diet-induced obese C57Bl/6 mouse assessed as reduction in triglyceride level at 50 mg/kg/day, po for 4 weeks administered with high-fat diet (reference value: 0.93 +/- 0.09 mM); format: functional
Mus musculus [5] = assay: Antiobesity activity in diet-induced obese C57Bl/6 mouse assessed as reduction in fasting blood glucose at 50 mg/kg/day, po for 4 weeks administered with high-fat diet (reference value: 5.0 +/- 1.30 mM); format: functional
Mus musculus [6] = assay: Decrease in insulin resistance in diet-induced obese C57Bl/6 mouse assessed as induction of insulin secretion at 50 mg/kg/day, po for 4 weeks by insulin tolerance test; format: functional, organism-based
Rattus norvegicus [7] = assay: Acute toxicity in Sprague-Dawley rat assessed as mortality at 2.5 g/kg, po as single dose measured after 7 days; format: organism-based; settings: in vivo, 2500 mg/kg, 168 h
Rattus norvegicus [8] = assay: Acute toxicity in Sprague-Dawley rat assessed as clinical signs at 2.5 g/kg, po as single dose measured after 7 days; format: organism-based; settings: in vivo, 2500 mg/kg, 168 h
Mus musculus [9] = assay: Antiobesity activity in diet-induced obese C57Bl/6 mouse assessed as reduction in fat accumulation in liver at 50 mg/kg/day, po for 4 weeks administered with high-fat diet by Oil Red O staining-based histological method; format: functional, organism-based
Mus musculus [10] = assay: Toxicity in diet-induced obese C57Bl/6 mouse assessed as change in ALT level at 50 mg/kg/day, po for 4 weeks administered with high-fat diet (reference value: 33.00 +/- 18.23 U/L); format: organism-based; design: route oral; settings: in vivo, 672 h
Mus musculus [11] = assay: Antiobesity activity in diet-induced obese C57Bl/6 mouse assessed as increase in HDL level at 50 mg/kg/day, po for 4 weeks administered with high-fat diet (reference value: 0.60 +/- 0.17 mM); format: functional
Mus musculus [12] = assay: Antiobesity activity in diet-induced obese C57Bl/6 mouse assessed as loss of liver weight at 50 mg/kg/day, po for 4 weeks administered with high-fat diet; format: functional
Mus musculus [13] = assay: Antiobesity activity in diet-induced obese C57Bl/6 mouse assessed as loss of epididymal fat mass at 50 mg/kg/day, po for 4 weeks administered with high-fat diet; format: functional
Mus musculus [14] = assay: Antiobesity activity in diet-induced obese C57Bl/6 mouse assessed as reduction in FFA level at 50 mg/kg/day, po for 4 weeks administered with high-fat diet (reference value: 19.55 +/- 1.57 ng/L); format: functional
Mus musculus [15] = assay: Antiobesity activity in diet-induced obese C57Bl/6 mouse assessed as reduction in LDL level at 50 mg/kg/day, po for 4 weeks administered with high-fat diet (reference value: 0.14 +/- 0.07 mM); format: functional
Mus musculus [16] = assay: Antiobesity activity in diet-induced obese C57Bl/6 mouse assessed as reduction in hepatic triglyceride level at 50 mg/kg/day, po for 4 weeks administered with high-fat diet by Oil Red O staining-based histological method; format: functional; design: scale not given: the % may be the effect or the level left
Mus musculus [17] = assay: Increase in glucose tolerance in diet-induced obese C57Bl/6 mouse at 50 mg/kg/day, po for 4 weeks by oral glucose tolerance test; format: functional, organism-based
Mus musculus [18] = assay: Antiobesity activity in diet-induced obese C57Bl/6 mouse assessed as reduction in body weight at 50 mg/kg/day, po for 4 weeks administered with high-fat diet; format: functional; design: scale not given: the % may be the effect or the level left
Mus musculus [19] = assay: Antiobesity activity in diet-induced obese C57Bl/6 mouse assessed as change in insulin level at 50 mg/kg/day, po for 4 weeks administered with high-fat diet (reference value: 11.85 +/- 2.6 mU); format: functional
Mus musculus [20] = assay: Toxicity in diet-induced obese C57Bl/6 mouse assessed as change in food intake at 50 mg/kg/day, po for 4 weeks administered with high-fat diet; format: organism-based; design: route oral; settings: in vivo, 672 h
Rattus norvegicus [21] = assay: Acute toxicity in Sprague-Dawley rat assessed as change in body weight at 2.5 g/kg, po as single dose measured after 7 days; format: organism-based; settings: in vivo, 2500 mg/kg, 168 h

CCCCCn1c(-c2ccc(OCCN(C)c3ccccn3)cc2)nc2c1c(=O)n(Cc1ccccc1C#N)c(=O)n2C
inhibition (3T3-L1): inactive

CCOC(=O)Cn1c(-c2ccc(OCCN(C)c3ccccn3)cc2)nc2c1c(=O)n(Cc1ccccc1C#N)c(=O)n2C
inhibition (3T3-L1): inactive

C=CCn1c(=O)c2[nH]c(-c3ccc(OCCN(C)c4ccccn4)cc3)nc2n(C)c1=O
inhibition (3T3-L1): inactive

CN(CCOc1ccc(-c2nc3c(c(=O)[nH]c(=O)n3C)n2COC(=O)C(C)(C)C)cc1)c1ccccn1
inhibition (3T3-L1): Active

CCCn1c(-c2ccc(OCCN(C)c3ccccn3)cc2)nc2c1c(=O)n(Cc1ccccc1C#N)c(=O)n2C
Activity (Mus musculus [1]): 3.99 | Activity (Mus musculus [2]): 150 U/L | Activity (Mus musculus [3]): inactive | Activity (Mus musculus [4]): 1.15 mM | Activity (Mus musculus [5]): 7.25 mM | Activity (Mus musculus [6]): inactive | Activity (Rattus norvegicus [7]): Non-toxic | Activity (Rattus norvegicus [8]): Non-toxic | Activity (Mus musculus [9]): Active | Activity (Mus musculus [10]): 86 U/L | inhibition at 10 µM (3T3-L1; 3T3-L1, 24 h): 51.1% | Activity (Mus musculus [11]): 0.96 mM | Activity (Mus musculus [12]): 12.8% | Activity (Mus musculus [13]): 4.76% | Activity (Mus musculus [14]): 24.43 ng/L | Activity (Mus musculus [15]): 0.16 mM | Activity (Mus musculus [16]): 5.15% | Activity (Mus musculus [17]): inactive | Activity (Mus musculus [18]): 7.64% | Activity (Mus musculus [19]): 12.04 mU | Activity (Mus musculus [20]): Non-toxic | Activity (Rattus norvegicus [21]): Non-toxic

CCCn1c(=O)c2c(nc(-c3ccc(OCCN(C)c4ccccn4)cc3)n2CCC)n(C)c1=O
inhibition (3T3-L1): inactive

CCOC(=O)CCCn1c(-c2ccc(OCCN(C)c3ccccn3)cc2)nc2c1c(=O)n(Cc1ccccc1C#N)c(=O)n2C
inhibition (3T3-L1): inactive

CCn1c(-c2ccc(OCCN(C)c3ccccn3)cc2)nc2c1c(=O)n(Cc1ccc(OC)cc1)c(=O)n2C
inhibition (3T3-L1): inactive

C=CCn1c(-c2ccc(OCCN(C)c3ccccn3)cc2)nc2c1c(=O)n(Cc1ccccc1C#N)c(=O)n2C
inhibition (3T3-L1): inactive

CCOC(=O)Cn1c(=O)c2c(nc(-c3ccc(OCCN(C)c4ccccn4)cc3)n2COC(=O)C(C)(C)C)n(C)c1=O
inhibition (3T3-L1): inactive

CN(CCOc1ccc(-c2nc3c(c(=O)n(Cc4ccccc4C#N)c(=O)n3C)n2C)cc1)c1ccccn1
inhibition (3T3-L1): inactive

CCn1c(-c2ccc(OCCN(C)c3ccccn3)cc2)nc2c1c(=O)n(Cc1ccc(F)cc1)c(=O)n2C
inhibition (3T3-L1): inactive

CCCn1c(=O)c2c(nc(-c3ccc(OCCN(C)c4ccccn4)cc3)n2CC)n(C)c1=O
inhibition (3T3-L1): inactive

CCCn1c(=O)c2[nH]c(-c3ccc(OCCN(C)c4ccccn4)cc3)nc2n(C)c1=O
inhibition (3T3-L1): inactive

CC(C)=CCn1c(-c2ccc(OCCN(C)c3ccccn3)cc2)nc2c1c(=O)n(Cc1ccccc1C#N)c(=O)n2C
inhibition (3T3-L1): inactive
